Test results: patent US10927078B2, “Modulators of indoleamine 2,3-dioxygenase” (GLAXOSMITHKLINE INTELLECTUAL PROPERTY DEVELOPMENT LIMITED, priority 2017, dated 2021)

The compounds below were run against indoleamine 2, 3-dioxygenase (IDO1) (Homo sapiens, UniProt P14902) (assay: PBMC IDO1 assay (kynurenine via mass spectrometry)). Settings: not given.
Assay type: cell-based
Description: Compounds of the present invention were tested via high-throughput cellular assays utilizing detection of kynurenine via mass spectrometry and cytotoxicity as end-points. For the mass spectrometry and cytotoxicity assays, human peripheral blood mononuclear cells (PBMC) (PB003F; AllCells®, Alameda, Calif.) were stimulated with human interferon-γ (IFN-γ) (Sigma-Aldrich Corporation, St. Louis, Mo.) and lipopolysaccharide from Salmonella minnesota (LPS) (Invivogen, San Diego, Calif.) to induce the expression of indoleamine 2, 3-dioxygenase (IDO1). Compounds with IDO1 inhibitory properties decreased the amount of kynurenine produced by the cells via the tryptophan catabolic pathway. Cellular toxicity due to the effect of compound treatment was measured using CellTiter-Glo® reagent (CTG) (Promega Corporation, Madison, Wis.), which is based on luminescent detection of ATP, an indicator of metabolically active cells.
In preparation for the assays, test compounds were serially diluted 3-fold in DMSO from a typical top concentration of 5 mM and plated at 0.5 μL in 384-well, polystyrene, clear bottom, tissue culture treated plates with lids (Greiner Bio-One, Kremsmünster, Austria) to generate 11-point dose response curves. Low control wells (0% kynurenine or 100% cytotoxicity) contained either 0.5 μL of DMSO in the presence of unstimulated (-IFN-γ/-LPS) PBMCs for the mass spectrometry assay or 0.5 μL of DMSO in the absence of cells for the cytotoxicity assay, and high control wells (100% kynurenine or 0% cytotoxicity) contained 0.5 μL of DMSO in the presence of stimulated (+IFN-γ/+LPS) PBMCs for both the mass spectrometry and cytotoxicity assays.
Frozen stocks of PBMCs were washed and recovered in RPMI 1640 medium (Thermo Fisher Scientific, Inc., Waltham, Mass.) supplemented with 10% v/v heat-inactivated fetal bovine serum (FBS) (Thermo Fisher Scientific, Inc., Waltham, Mass.), and 1× penicillin-streptomycin antibiotic solution (Thermo Fisher Scientific, Inc., Waltham, Mass.). The cells were diluted to 1,000,000 cells/mL in the supplemented RPMI 1640 medium. 50 μL of either the cell suspension, for the mass spectrometry assay, or medium alone, for the cytotoxicity assay, were added to the low control wells, on the previously prepared 384-well compound plates, resulting in 50,000 cells/well or 0 cells/well respectively. IFN-γ and LPS were added to the remaining cell suspension at final concentrations of 100 ng/ml and 50 ng/ml respectively, and 50 μL of the stimulated cells were added to all remaining wells on the 384-well compound plates. The plates, with lids, were then placed in a 37° C., 5% CO2 humidified incubator for 2 days.
Following incubation, the 384-well plates were removed from the incubator and allowed to equilibrate to room temperature for 30 minutes. For the cytotoxicity assay, CellTiter-Glo® was prepared according to the manufacturer's instructions, and 40 μL were added to each plate well. After a twenty minute incubation at room temperature, luminescence was read on an EnVision® Multilabel Reader (PerkinElmer Inc., Waltham, Mass.). For the mass spectrometry assay, 10 μL of supernatant from each well of the compound-treated plates were added to 40 μL of acetonitrile, containing 10 μM of an internal standard for normalization, in 384-well, polypropylene, V-bottom plates (Greiner Bio-One, Kremsmünster, Austria) to extract the organic analytes. Following centrifugation at 2000 rpm for 10 minutes, 10 μL from each well of the acetonitrile extraction plates were added to 90 μL of sterile, distilled H2O in 384-well, polypropylene, V-bottom plates for analysis of kynurenine and the internal standard on the RapidFire 300 (Agilent Technologies, Santa Clara, Calif.) and 4000 QTRAP MS (SCIEX, Framingham, Mass.). MS data were integrated using Agilent Technologies' RapidFire Integrator software, and data were normalized for analysis as a ratio of kynurenine to the internal standard. […]

Sequence of indoleamine 2, 3-dioxygenase (IDO1) (P14902 whole entry): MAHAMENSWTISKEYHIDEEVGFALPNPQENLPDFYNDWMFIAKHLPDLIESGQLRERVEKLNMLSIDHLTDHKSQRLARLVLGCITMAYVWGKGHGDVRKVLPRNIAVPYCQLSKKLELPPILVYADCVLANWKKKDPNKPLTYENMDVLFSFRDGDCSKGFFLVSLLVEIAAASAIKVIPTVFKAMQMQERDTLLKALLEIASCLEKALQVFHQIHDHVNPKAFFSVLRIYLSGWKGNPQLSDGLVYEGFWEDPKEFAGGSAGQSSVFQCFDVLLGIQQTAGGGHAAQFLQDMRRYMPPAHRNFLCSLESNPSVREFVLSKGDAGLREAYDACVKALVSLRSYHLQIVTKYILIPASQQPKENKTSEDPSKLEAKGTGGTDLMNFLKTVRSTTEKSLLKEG

First: O=C(NC(c1ccncc1)C1CCN(C(=O)Oc2cccnc2F)CC1)c1ccc(F)cc1 (centres unmarked) [Example 72, 2-fluoropyridin-3-yl 4-{[(4-fluorophenyl)formamido](pyridin-4-yl)methyl}piperidine-1-carboxylate]
Second: O=C(NC(c1ccncc1)C1CCN(C(=O)Oc2cccnc2)CC1)c1ccc(F)cc1 (centres unmarked) [Example 87, pyridin-3-yl 4-{[(4-fluorophenyl)formamido](pyridin-4-yl)methyl}piperidine-1-carboxylate]
The IC50 of the first is 4-fold lower: 158 nM for the first, 631 nM for the second.

COCCC[C@@H](NC(=O)c1ccc(F)cc1)C1CCN(C(=O)Oc2cccnc2F)CC1 [Example 76, 2-fluoropyridin-3-yl 4-[(1R)-1-[(4-fluorophenyl)formamido]-4-methoxybutyl]piperidine-1-carboxylate] showed an IC50 of 158 nM.

Same assay, conditions: human PBMC stimulated with IFN-γ and LPS, 2 days, kynurenine by mass spectrometry; recorded as pIC50; read-out: PBMC PXC50_ (converted)

Going from CC(C)CC(NC(=O)c1ccc(F)cc1)C1CCN(C(=O)Oc2ccc(Cl)cc2)CC1 (centres unmarked) [Example 59, 4-chlorophenyl 4-{1-[(4-fluorophenyl)formamido]-3-methylbutyl}piperidine-1-carboxylate] to CC(C)C[C@H](NC(=O)c1ccc(Cl)cc1)C1CCN(C(=O)Oc2ccccc2)CC1 [Example 67, phenyl 4-[(1S)-1-[(4-chlorophenyl)formamido]-3-methylbutyl]piperidine-1-carboxylate], the IC50 rises from 50.1 nM to 100 nM (2-fold).

Compared with COc1nccc(OC(=O)N2CCC(C(CC(C)C)NC(=O)c3ccc(F)cc3)CC2)c1F (centres unmarked) [Example 60, 3-fluoro-2-methoxypyridin-4-yl 4-{1-[(4-fluorophenyl)formamido]-3-methylbutyl}piperidine-1-carboxylate], CC(C)CC(NC(=O)c1ccc(F)cc1)C1CCN(C(=O)Oc2ccnc3ccccc23)CC1 (centres unmarked) [Example 79, quinolin-4-yl 4-{1-[(4-fluorophenyl)formamido]-3-methylbutyl}piperidine-1-carboxylate] is 6.3-fold higher in IC50: 50.1 nM for the first, 316 nM for the second.

Going from Cc1c(F)cccc1OC(=O)N1CCC(C(NC(=O)c2ccc(F)cc2)C2CC2)CC1 (centres unmarked) [Example 61, 3-fluoro-2-methylphenyl 4-{cyclopropyl[(4-fluorophenyl)formamido]methyl}piperidine-1-carboxylate] to Cc1c(F)cccc1OC(=O)N1CCC([C@@H](CCCO)NC(=O)c2ccc(F)cc2)CC1 [Example 80, 3-fluoro-2-methylphenyl 4-[(1R)-1-[(4-fluorophenyl)formamido]-4-hydroxybutyl]piperidine-1-carboxylate], the IC50 rises from 63.1 nM to 316 nM (5-fold).

Going from CC(C)CC(NC(=O)c1ccc(F)cc1)C1CCN(C(=O)OCc2ccccc2)CC1 (centres unmarked) [Example 62, benzyl 4-{1-[(4-fluorophenyl)formamido]-3-methylbutyl}piperidine-1-carboxylate] to CC(C)C[C@H](NC(=O)c1ccc(F)cc1)C1CCN(C(=O)Oc2ccccc2)CC1 [Example 69, phenyl 4-[(1S)-1-[(4-fluorophenyl)formamido]-3-methylbutyl]piperidine-1-carboxylate], the IC50 rises from 63.1 nM to 126 nM (2-fold).

Going from CC(C)CC(NC(=O)c1ccc(Cl)cc1)C1CCN(C(=O)OCc2nccs2)CC1 (centres unmarked) [Example 64, (1,3-thiazol-2-yl)methyl 4-{1-[(4-chlorophenyl)formamido]-3-methylbutyl}piperidine-1-carboxylate] to CC(C)CC(NC(=O)c1nnc(Cl)s1)C1CCN(C(=O)Oc2ccccc2)CC1 (centres unmarked) [Example 83, phenyl 4-{1-[(5-chloro-1,3,4-thiadiazol-2-yl)formamido]-3-methylbutyl}piperidine-1-carboxylate], the IC50 rises from 79.4 nM to 501 nM (6.3-fold).

First: O=C(NC(c1ccncc1)C1CCN(C(=O)Oc2ccccc2)CC1)c1ccc(F)cc1 (centres unmarked) [Example 65, phenyl 4-{[(4-fluorophenyl)formamido](pyridin-4-yl)methyl}piperidine-1-carboxylate]
Second: O=C(NC(c1ccncc1)C1CCN(C(=O)Oc2ccccc2)CC1)c1ccccc1 (centres unmarked) [Example 77, phenyl 4-[(phenylformamido)(pyridin-4-yl)methyl]piperidine-1-carboxylate]
The IC50 of the first is 2-fold lower: 100 nM for the first, 200 nM for the second.

First: O=C(NC(C1CC1)C1CCN(C(=O)Oc2ccccc2)CC1)c1ccc(F)cc1 (centres unmarked) [Example 66, phenyl 4-{cyclopropyl[(4-fluorophenyl)formamido]methyl}piperidine-1-carboxylate]
Second: O=C(NC(C1CC1)C1CCN(C(=O)Oc2ccncc2)CC1)c1ccc(F)cc1 (centres unmarked) [Example 81, pyridin-4-yl 4-{cyclopropyl[(4-fluorophenyl)formamido]methyl}piperidine-1-carboxylate]
The IC50 of the first is 4-fold lower: 100 nM for the first, 398 nM for the second.

Cc1c(F)cccc1OC(=O)N1CCC([C@@H](C)NC(=O)c2ccc(Cl)cc2)CC1 [Example 68, 3-fluoro-2-methylphenyl 4-[(1R)-1-[(4-chlorophenyl)formamido]ethyl]piperidine-1-carboxylate] and CC(NC(=O)c1ccc(F)cc1)C1CCN(C(=O)Oc2ccccc2)CC1 (centres unmarked) [Example 74, phenyl 4-{1-[(4-fluorophenyl)formamido]ethyl}piperidine-1-carboxylate] are within 1.5-fold of each other in IC50: 126 nM for the first, 158 nM for the second.

Going from O=C(NC(C1CC1)C1CCN(C(=O)Oc2ccnc(F)c2)CC1)c1ccc(F)cc1 (centres unmarked) [Example 71, 2-fluoropyridin-4-yl 4-{cyclopropyl[(4-fluorophenyl)formamido]methyl}piperidine-1-carboxylate] to COc1cc(OC(=O)N2CCC(C(NC(=O)c3ccc(F)cc3)C3CC3)CC2)ccn1 (centres unmarked) [Example 86, 2-methoxypyridin-4-yl 4-{cyclopropyl[(4-fluorophenyl)formamido]methyl}piperidine-1-carboxylate], the IC50 rises from 158 nM to 631 nM (4-fold).

Going from O=C(NC(c1ccccc1)C1CCN(C(=O)Oc2ccccc2)CC1)c1ccc(C(F)(F)F)cc1 (centres unmarked) [Example 73, phenyl 4-[phenyl({[4-(trifluoromethyl)phenyl]formamido})methyl]piperidine-1-carboxylate] to O=C(NC(c1ccccc1)C1CCN(C(=O)Oc2ccccc2)CC1)c1ccc(C(F)(F)F)cn1 (centres unmarked) [Example 88, phenyl 4-[phenyl({[5-(trifluoromethyl)pyridin-2-yl]formamido})methyl]piperidine-1-carboxylate], the IC50 rises from 158 nM to 631 nM (4-fold).

Going from CC(C)C[C@H](NC(=O)c1ccccc1)C1CCN(C(=O)Oc2ccccc2)CC1 [Example 75, phenyl 4-[(1S)-3-methyl-1-(phenylformamido)butyl]piperidine-1-carboxylate] to CC(C)OCC(NC(=O)c1ccc(F)cc1)C1CCN(C(=O)Oc2ccccc2)CC1 (centres unmarked) [Example 82, phenyl 4-{1-[(4-fluorophenyl)formamido]-2-(propan-2-yloxy)ethyl}piperidine-1-carboxylate], the IC50 rises from 158 nM to 398 nM (2.5-fold).

Compared with C#Cc1ccc(C(=O)NC(c2ccccc2)C2CCN(C(=O)OC(C)(C)C)CC2)cc1 (centres unmarked) [Example 78, tert-butyl 4-{[(4-ethynylphenyl)formamido](phenyl)methyl}piperidine-1-carboxylate], CC(C)(C)OC(=O)N1CCC(C(NC(=O)c2cccc3cc[nH]c23)c2ccccc2)CC1 (centres unmarked) [Example 85, tert-butyl 4-{[(1H-indol-7-yl)formamido](phenyl)methyl}piperidine-1-carboxylate] is 2.5-fold higher in IC50: 251 nM for the first, 631 nM for the second.

CC(C)CC(NC(=O)c1ccc(F)cc1)C1CCN(C(=O)OC2CCNc3ccccc32)CC1 (centres unmarked) [Example 84, 1,2,3,4-tetrahydroquinolin-4-yl 4-{1-[(4-fluorophenyl)formamido]-3-methylbutyl}piperidine-1-carboxylate] and N#Cc1ccc(C(=O)NC(c2ccccc2)C2CCN(C(=O)Oc3ccccc3)CC2)nc1 (centres unmarked) [Example 89, phenyl 4-{[(5-cyanopyridin-2-yl)formamido](phenyl)methyl}piperidine-1-carboxylate] are within 1.5-fold of each other in IC50: 501 nM for the first, 631 nM for the second.
